From patent US10660333B2, “Substituted 2-heterocyclylimidazolylcarboxamides as pesticides” (BAYER CROPSCIENCE AKTIENGESELLSCHAFT, priority 2016, dated 2020)
Like-named read-outs stand apart in the source and are kept apart here.

Columns and labels:
[1] = log P by HPLC on reversed-phase (C18) columns, OECD Guideline 117; assay type: physicochemical; details: for chromatographic logP: reversed-phase (C18) HPLC column
Myzus persicae [2] = test: Myzus persicae - spray test; assay type: in vivo; details: 500 g/ha, Chinese cabbage leaf discs, after 5 days; for pest or weed control at 500 g/ha: Myzus persicae, foliar, 120 h, read-out: efficacy (aphids killed)
Protocol: Myzus persicae—Spray Test
(§1) To produce a suitable active ingredient formulation, 1 part by weight of active ingredient is dissolved with the specified parts by weight of solvent and made up to the desired concentration with water containing an emulsifier concentration of 1000 ppm. To produce further test concentrations, the formulation is diluted with emulsifier-containing water.
(§2) Discs of Chinese cabbage leaves (Brassica pekinensis) infested by all stages of the green peach aphid (Myzus persicae) are sprayed with an active ingredient formulation of the desired concentration.
(§3) After 5 days, the efficacy in % is determined. 100% means that all the aphids have been killed; 0% means that no aphids have been killed.

Myzus persicae [3] = test: Myzus persicae - oral test; assay type: in vivo; details: 4 ppm, oral, after 5 days; for pest or weed control at 4 ppm: Myzus persicae, 120 h, read-out: efficacy (aphids killed)
Protocol: (§4) To produce a suitable active ingredient formulation, 1 part by weight of active ingredient is dissolved with the specified parts by weight of solvent and made up to the desired concentration with water.
(§5) 50 μl of the active ingredient formulation are transferred into microtitre plates and made up to a final volume of 200 μl with 150 μl of IPL41 insect medium (33%+15% sugar). Subsequently, the plates are sealed with parafilm, which a mixed population of green peach aphids (Myzus persicae) within a second microtitre plate is able to puncture and imbibe the solution.
as §3

Myzus persicae [4] = test: Myzus persicae - spray test (MYZUPE), comparison with prior art; assay type: in vivo; details: for Emax at 20 g/ha / Emax at 100 g/ha / Emax at 500 g/ha / Emax at 4 g/ha: Myzus persicae, read-out: % efficacy
Protocol: Myzus persicae—Spray Test (MYZUPE)
as §1, §2
(§6) After the desired period of time, the efficacy in % is determined. 100% means that all the aphids have been killed; 0% means that no aphids have been killed.

Myzus persicae [5] = test: Myzus persicae - oral test (MYZUPE O), comparison with prior art; assay type: in vivo; details: 5 dat; for Emax at 0.8 ppm / Emax at 4 ppm: Myzus persicae, po, 120 h, read-out: % efficacy
Protocol: Myzus persicae—Oral Test (MYZUPE O)
as §4, §5, §6

Myzus persicae [6] = test: Myzus persicae - spray test (MYZUPE S), bell pepper plants; assay type: in vivo; details: 6 dat; for Emax at 0.16 ppm / Emax at 0.8 ppm: Myzus persicae, 144 h, read-out: % efficacy
Protocol: Myzus persicae—Spray Test (MYZUPE S)
(§7) To produce a suitable active ingredient formulation, 1 part by weight of active ingredient is dissolved with the specified parts by weight of solvent and made up to the desired concentration with water containing an emulsifier concentration of 1000 ppm. To produce further test concentrations, the formulation is diluted with emulsifier-containing water. If the addition of ammonium salts or/and penetrants is required, these are each added in a concentration of 1000 ppm to the formulation solution.
Bell pepper plants (Capsicum annuum) severely infested with the green peach aphid (Myzus persicae) are treated by spraying with the active ingredient formulation in the desired concentration.
After the desired time, the kill in % is determined. 100% means that all the animals have been killed; 0% means that no animals have been killed.

Myzus persicae [7] = test: Myzus persicae - drench test (MYZUPE D), savoy cabbage; assay type: in vivo; details: 10 dat; for Emax at 0.16 ppm / Emax at 0.8 ppm: Myzus persicae, soil, 240 h, read-out: % efficacy
Protocol: Myzus persicae—Drench Test (MYZUPE D)
To produce a suitable active ingredient formulation, 1 part by weight of active ingredient is mixed with the specified amounts of solvent and emulsifier, and the concentrate is diluted with water to the desired concentration, it being necessary to include the volume of soil which is drenched in the calculation. It should be ensured that a concentration of 40 ppm of emulsifier in the soil is not exceeded. To produce further test concentrations, water is used for dilution.
Savoy cabbage (Brassica oleracea) in pots with soil and infested by all stages of the green peach aphid (Myzus persicae) is watered with an active ingredient formulation of the desired concentration.
as §6

Aphis gossypii = Aphis gossypii - spray test (APHIGO S), cotton plants; assay type: in vivo; details: 144 h, 6 dat, read-out: % efficacy
Protocol: Aphis gossypii—Spray Test (APHIGO S)
as §7
Cotton plants (Gossypium hirsutum) heavily infested by the cotton aphid (Aphis gossypii) are sprayed with an active ingredient formulation of the desired concentration.
After the desired time, the kill in % is determined. 100% means that all the aphids have been killed; 0% means that no aphids have been killed.

[8] = HPLC RP C18, acidic range pH 2.7, 0.1% formic acid/acetonitrile, read-out: logP[a]
[9] = HPLC RP C18, neutral range pH 7.8, ammonium hydrogencarbonate/acetonitrile, read-out: logP[n]
[10] = 120 h, 20 g/ha (g of ai/ha), 5 dat
[11] = 120 h, 100 g/ha (g of ai/ha), 5 dat
[12] = 120 h, 4 g/ha (g of ai/ha), 5 dat
[13] = HPLC RP C18, acidic range pH 2.7, 0.1% formic acid/acetonitrile
[14] = HPLC RP C18, neutral range pH 7.8, ammonium hydrogencarbonate/acetonitrile

Compound	Emax at 20 g/ha (Myzus persicae [4]; [10]) [%]	Emax at 100 g/ha (Myzus persicae [4]; [11]) [%]	Emax at 0.8 ppm (Myzus persicae [5]; 0.8 ppm) [%]	Emax at 4 ppm (Myzus persicae [5]; 4 ppm) [%]	Emax at 0.16 ppm (Myzus persicae [6]; 0.16 ppm) [%]	Emax at 0.8 ppm (Myzus persicae [6]; 0.8 ppm) [%]	Emax at 0.16 ppm (Myzus persicae [7]; 0.16 ppm) [%]	Emax at 0.8 ppm (Myzus persicae [7]; 0.8 ppm) [%]	Emax at 0.16 ppm (Aphis gossypii) [%]	Emax at 0.8 ppm (Aphis gossypii) [%]	also measured
CC(C)C1=NOC(c2ncc(C(=O)N(C)c3cccnc3)n2C)C1 (stereo not shown) [Example I-1-3]	70	90	100	100	99	100	95	100	70	100	chromatographic logP [1, 8]: 1.08; chromatographic logP [1, 9]: 1.34; pest or weed control at 500 g/ha (Myzus persicae [2]): 100%; pest or weed control at 4 ppm (Myzus persicae [3]): 100%; Emax at 500 g/ha (Myzus persicae [4]; 120 h, 500 g/ha, 5 dat): 100%
CN(C(=O)c1cnc(C2CC2)n1C)c1cccnc1 [reference compound]	–	–	–	–	5	–	–	–	10	30	–
CN(C(=O)c1cnc(C2CC(C3CC3)=NO2)n1C)c1cccnc1 (stereo not shown) [Example I-1-4]	100	90	100	100	98	100	95	100	90	100	chromatographic logP [1, 8]: 0.85; chromatographic logP [1, 9]: 1.15; pest or weed control at 500 g/ha (Myzus persicae [2]): 90%; pest or weed control at 4 ppm (Myzus persicae [3]): 100%; Emax at 4 g/ha (Myzus persicae [4]; [12]): 70%; Emax at 500 g/ha (Myzus persicae [4]; 120 h, 500 g/ha, 5 dat): 90%
CCC1=NOC(c2ncc(C(=O)N(C)c3cccnc3)n2C)C1 (stereo not shown) [Example I-1-2]	90	70	100	100	100	100	98	100	98	98	chromatographic logP [1, 8]: 0.71; chromatographic logP [1, 9]: 1.09; pest or weed control at 500 g/ha (Myzus persicae [2]): 90%; pest or weed control at 4 ppm (Myzus persicae [3]): 100%; Emax at 500 g/ha (Myzus persicae [4]; 120 h, 500 g/ha, 5 dat): 90%
Cc1nc(C(=O)Nc2cccnc2)c[nH]1 [WO 2011/009804 (Ex. 14), reference compound]	0	0	0	0	–	–	–	–	–	–	Emax at 4 g/ha (Myzus persicae [4]; [12]): 0%
CN(C(=O)c1cnc(-c2cc(-c3ccccc3)no2)n1C)c1cccnc1 [reference compound]	–	–	–	–	0	0	0	0	0	0	Emax at 4 g/ha (Myzus persicae [4]; 144 h, 4 g/ha, 6 dat): 0%; Emax at 20 g/ha (Myzus persicae [4]; 144 h, 20 g/ha, 6 dat): 0%
Cc1ncc(C(=O)N(C)c2cccnc2)n1C [reference compound]	–	–	–	–	0	–	30	–	0	0	–
CN(C(=O)c1cnc(C2CC(c3ccc(F)cc3)=NO2)n1C)c1cccnc1 (stereo not shown) [Example I-1-22]	–	–	–	–	–	–	–	–	–	–	logP[a] ([1]; pH 2.7): 1.55; logP[n] ([1]; pH 7.8): 1.82; efficacy (aphids killed) (Myzus persicae [2]): 100%; efficacy (aphids killed) (Myzus persicae [3]): 100%; % efficacy (Myzus persicae [4]; 4 g/ha (g of ai/ha), 5 dat): 90%; % efficacy (Myzus persicae [4]; 20 g/ha (g of ai/ha), 5 dat): 100%; % efficacy (Myzus persicae [4]; 100 g/ha (g of ai/ha), 5 dat): 100%; % efficacy (Myzus persicae [4]; 500 g/ha, 5 dat): 100%; % efficacy (Myzus persicae [5]; 0.8 ppm): 90%; % efficacy (Myzus persicae [5]; 4 ppm): 100%; % efficacy (Myzus persicae [6]; 0.16 ppm): 90%; % efficacy (Myzus persicae [6]; 0.8 ppm): 99%; % efficacy (Myzus persicae [7]; 0.16 ppm): 90%; % efficacy (Myzus persicae [7]; 0.8 ppm): 95%
CCOC(=O)c1cc(-c2ncc(C(=O)N(C)c3cccnc3)n2C)on1 [reference compound]	0	0	0	0	–	–	–	–	–	–	Emax at 4 g/ha (Myzus persicae [4]; [12]): 0%; Emax at 500 g/ha (Myzus persicae [4]; 120 h, 500 g/ha, 5 dat): 0%
Cc1ncc(C(=O)Nc2cccnc2)n1C [reference compound]	0	–	–	–	0	30	0	0	0	0	Emax at 4 g/ha (Myzus persicae [4]; [12]): 0%
CN(C(=O)c1cnc(C2CC(c3cc(Cl)ccc3Cl)=NO2)n1C)c1cccnc1 (stereo not shown) [Example I-1-14]	–	–	–	–	–	–	–	–	–	–	logP[a] [1, 13]: 2.13; logP[n] [1, 14]: 2.32; efficacy (aphids killed) (Myzus persicae [2]): 90%; efficacy (aphids killed) (Myzus persicae [3]): 100%
CCc1ncc(C(=O)N(C)c2cccnc2)n1C [reference compound]	–	–	–	–	0	–	0	–	0	0	–
CN(C(=O)c1cnc(C2CC(c3ccccc3C#N)=NO2)n1C)c1cccnc1 (stereo not shown) [Example I-1-18]	–	–	–	–	–	–	–	–	–	–	logP[a] [1, 13]: 1.34; logP[n] [1, 14]: 1.55; efficacy (aphids killed) (Myzus persicae [2]): 90%; efficacy (aphids killed) (Myzus persicae [3]): 100%
CN(C(=O)c1cnc(C2CC(c3ccc(Cl)c(Cl)c3)=NO2)n1C)c1cccnc1 (stereo not shown) [Example I-1-16]	–	–	–	–	–	–	–	–	–	–	logP[a] [1, 13]: 2.27; logP[n] [1, 14]: 2.48; efficacy (aphids killed) (Myzus persicae [2]): 100%; efficacy (aphids killed) (Myzus persicae [3]): 100%
O=C(Nc1cccnc1)c1c[nH]cn1 [WO 2011/009804 (Ex. 13), reference compound]	–	–	0	0	–	–	–	–	–	–	Emax at 4 g/ha (Myzus persicae [4]; 144 h, 4 g/ha, 6 dat): 0%; Emax at 20 g/ha (Myzus persicae [4]; 144 h, 20 g/ha, 6 dat): 0%; Emax at 100 g/ha (Myzus persicae [4]; 144 h, 100 g/ha, 6 dat): 0%
